The subject of test [1] is female Syrian golden hamsters. Kind of test: post-coital-post-implantation antifertility activity, s.c., hamsters. Format: in vivo, Syrian golden hamster. The following applies: Mesocricetus auratus, sc, sesame oil containing 20% benzyl benzoate, daily for 5 days (days 4-8 of pregnancy), autopsy day 14, read-out: ED50 (100% activity, absence of live fetuses, in 50% of the animals). On the procedure:
(§1) Representative experiments for assessing antifertility activity were carried out with female Syrian golden hamsters weighing 100 to 130 g. The animals were mated and the presence of sperm in the vagina was taken as evidence of mating. The day sperm was detected was considered day one of pregnancy, since in our laboratories and those of other investigators 90 to 100% of animals that mate as evidenced by vaginal sperm are pregnant.
(§2) Pregnancy was later confirmed at the time of autopsy by presence of fetuses or implantation sites in the uterus. Even if an animal aborts the fetus, implantation scars still remain as evidence that the animal has been pregnant. […] The animals were autopsied on day 14 of pregnancy and the uteri were examined for evidence of pregnancy (implantation sites, fetal resorptions or live fetuses), hemorrhage, and evidence of abnormalities of the uterus, placenta or fetuses. A compound was considered to be active if there was a reduction of live fetuses in at least 60% of the treated animals and the presence of implantation sites proves the animal to have been pregnant.
The compounds were then studied for dose-activity relationships and the corresponding ED50 values i.e., 100% activity (absence of live fetuses) in 50% of the animals, were also determined. The following Table reports the ED50 values of some representative compounds of the invention: […]

Test [2] relates to female Sprague-Dawley rats. Put plainly: anti-reproductive activity, s.c., rats. The following applies: Rattus norvegicus, sc, five consecutive days from day 6 of pregnancy, autopsy day 16. Format: in vivo, Sprague-Dawley rat. On the procedure:
The same criteria and experimental conditions as above were also applied when the anti-reproductive activity of the compounds of the invention was investigated in other animal species such as, for instance, rats, dogs, monkeys and baboons.
In representative experiments, female Sprague-Dawley rats weighing from 200 to 300 g. were treated subcutaneously with a dosage of 20 mg/kg of the compound to be tested, dissolved in sesame oil containing 20% of benzyl benzoate, for five consecutive days starting from day 6 of pregnancy.

In test [3] the test system is hamsters. Kind of test: antifertility activity by oral route, hamsters. Particulars: Mesocricetus auratus, p.o. Format: in vivo, hamster. On the procedure: as §1, §2
The compounds were then studied for dose-activity relationships and the corresponding ED50 values i.e., 100% activity (absence of live fetuses) in 50% of the animals, were also determined. The following Table reports the ED50 values of some representative compounds of the invention:
Favorable results were also obtained by administering the compounds of the invention by oral route. The experiments for assessing this property were carried out on hamsters following the same procedures as above, with the obvious exception that the compounds were administered orally instead of subcutaneously.

Test [4] has as its system hamsters. Put plainly: antifertility activity by intravaginal route, hamsters. Format: in vivo, hamster. Particulars: Mesocricetus auratus.

Results on 4 compounds are retold here after patent publication US4275066A, “Antireproductive tricyclic ortho-fused nitrogen containing compounds” (Gruppo Lepetit S.p.A., priority 1979, dated 1981).

Turning to `c1ccc(-c2ccc(-c3nc4c5ccccc5ccn4n3)cc2)cc1` [Example 1, 2-[(1,1'-Biphenyl)-4-yl]-1,2,4-triazolo[5,1-a]isoquinoline], the ED50 was 0.015 mg/kg in test [1], 0.55 mg/kg in test [2], 0.2 mg/kg with hamsters [3] and approximately 0.2 mg/kg in the test with hamsters [4].

In the case of `c1ccc(-c2ccc(-c3nc4n(n3)CCc3ccccc3-4)cc2)cc1` [Example 3, 2-[(1,1'-Biphenyl)-4-yl]-5,6-dihydro-1,2,4-triazolo[5,1-a]isoquinoline], the ED50 was determined as 0.05 mg/kg in test [1] and 0.5 mg/kg in the test on hamsters [3].

`c1ccc(-c2ccc(-c3nc4n(n3)Cc3ccccc3-4)cc2)cc1` [Example 4, 2-[(1,1'-Biphenyl)-4-yl]-5H-1,2,4-triazolo[5,1-a]isoindole]: the ED50 in test [1] stood at 0.7 mg/kg.

As to `c1ccc(-c2ccc(-c3cn4ccc5ccccc5c4n3)cc2)cc1` [Example 6, 2-[(1,1'-Biphenyl)-4-yl]-imidazo[2,1-a]isoquinoline], the ED50 in test [1] was found to be 0.02 mg/kg; in the test on hamsters [3], 0.3 mg/kg.
